Where two headings read alike, the source gives them in different places.

The values below come from patent EP0112669A2, “Phenethylamine derivatives and intermediates therefor” (AMERICAN HOME PRODUCTS CORPORATION, priority 1982, dated 1984).

The target in experiment [1] is T1, synaptosomal uptake of serotonin (14C-5-HT) (Homo sapiens, UniProt P31645).
T1 construct: from tissue
The experiment in a line: biochemical.

The target in experiment [2] is ^3H-imipramine binding in brain tissue.
Experiment [3] concerns the target synaptosomal uptake of norepinephrine (^3H-NE). The experiment in a line: Inhibition of synaptosomal NE uptake.
Experiment [4] has as its system reserpine-induced hypothermia. The experiment in a line: Antagonism of reserpine-induced hypothermia. It is filed as in vivo, mice. The following applies: for minimal effective dose: Mus musculus, read-out: minimum effective dose (M.E.D.), antagonism of reserpine-induced hypothermia; for potency relative to Compound A in reversal of reserpine-induced hypothermia: compared with Compound A. The protocol: 37, 795-797 (1981); and antagonize reserpine induced hypothermia when tested in accordance with the procedure of Askew, Life Sci. 1, 725-730 (1963).
All mice received 5mg/kg reserpine s.c. 18 h prior to test compound.

The target in experiment [5] is muscarinic receptor. To be noted: read-out: Ki (^3H-QNB binding).
The subject of experiment [6] is carbachol-stimulated contraction of the guinea-pig ileum. The experiment is described as follows: Inhibition of carbachol-stimulated contraction of guinea-pig ileum.
Where [7] appears, read: read-out: inhibition constant (Ki) vs. ^3H-imipramine.
Where [8] appears, read: ip, mice, n = 8 per group, 5mg/kg reserpine s.c. 18 h prior to test compound.
[9] abbreviates: unit inferred, read-out: inhibition constants (vs. ^3H-imipramine).

Sequence of synaptosomal uptake of norepinephrine (^3H-NE) (P23975 whole entry): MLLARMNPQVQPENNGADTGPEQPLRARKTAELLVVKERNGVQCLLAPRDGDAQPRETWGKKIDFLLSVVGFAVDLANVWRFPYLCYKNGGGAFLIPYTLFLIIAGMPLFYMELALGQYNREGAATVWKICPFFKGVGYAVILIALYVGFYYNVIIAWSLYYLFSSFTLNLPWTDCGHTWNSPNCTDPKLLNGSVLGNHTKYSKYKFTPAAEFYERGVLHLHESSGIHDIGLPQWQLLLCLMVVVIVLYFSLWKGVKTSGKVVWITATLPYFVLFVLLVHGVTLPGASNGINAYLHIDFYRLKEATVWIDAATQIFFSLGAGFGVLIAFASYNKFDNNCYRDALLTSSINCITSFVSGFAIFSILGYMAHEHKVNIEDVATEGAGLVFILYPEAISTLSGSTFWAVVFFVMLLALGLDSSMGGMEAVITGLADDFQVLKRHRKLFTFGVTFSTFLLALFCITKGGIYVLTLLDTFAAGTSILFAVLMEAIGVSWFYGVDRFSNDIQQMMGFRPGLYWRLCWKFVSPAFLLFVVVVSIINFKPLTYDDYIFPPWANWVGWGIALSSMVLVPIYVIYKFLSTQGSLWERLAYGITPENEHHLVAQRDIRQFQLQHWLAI
T1 sequence (P31645 whole entry): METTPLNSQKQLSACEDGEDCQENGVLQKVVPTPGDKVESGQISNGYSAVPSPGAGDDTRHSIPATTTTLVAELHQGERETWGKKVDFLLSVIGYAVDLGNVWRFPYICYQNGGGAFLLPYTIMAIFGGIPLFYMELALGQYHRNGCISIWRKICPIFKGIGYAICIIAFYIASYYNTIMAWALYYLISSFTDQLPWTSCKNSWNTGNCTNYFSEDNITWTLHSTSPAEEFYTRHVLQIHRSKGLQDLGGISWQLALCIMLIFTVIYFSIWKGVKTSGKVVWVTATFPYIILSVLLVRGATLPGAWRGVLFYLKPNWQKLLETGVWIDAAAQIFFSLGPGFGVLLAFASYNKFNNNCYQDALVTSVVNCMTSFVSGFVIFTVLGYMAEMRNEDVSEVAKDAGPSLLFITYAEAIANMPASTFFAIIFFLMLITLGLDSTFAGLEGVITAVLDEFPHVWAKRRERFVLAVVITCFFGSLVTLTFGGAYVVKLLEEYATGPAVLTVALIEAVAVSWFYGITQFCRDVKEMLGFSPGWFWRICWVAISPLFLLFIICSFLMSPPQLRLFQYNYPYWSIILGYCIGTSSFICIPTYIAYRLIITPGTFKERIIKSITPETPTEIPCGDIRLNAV

In general, IC50 refers to the concentration that inhibits the measured activity by half. A high value points to weaker potency. For the compound `COc1ccc(C2CN(C)COC23CCCCC3)cc1` (stereo not drawn) [Compound B, 5-(4-methoxyphenyl)-3-methyl-3-aza-l-oxas^piro(5.5) undecane], the IC50 came to 2900 nM in experiment [1] and 4700 nM in experiment [3]. Also, the Ki in experiment [2] (setting [7]) is 350 nM. Moreover, the minimal effective dose in experiment [4] (setting [8]) turned out to be 30 mg/kg. Besides, the “potency relative to Compound A in reversal of reserpine-induced hypothermia” value in experiment [4] (mice) is “less potent”.
As to `CN(C)CC(c1cccc(Br)c1)C1(O)CCCCC1` (centres unmarked) [Compound F, 1-[1-(3-bromophenyl)-2-(dimethylamino)ethyl]-cyclohexanol], the Ki in experiment [2] (setting [9]) was 52 nM. Also, the minimal effective dose in experiment [4] (setting [8]) is 1 mg/kg. In addition, in experiment [4] (mice), the “potency relative to Compound A in reversal of reserpine-induced hypothermia” value is “approximately ten times as potent”.
Regarding `CNCCCN1c2ccccc2CCc2ccccc21` [DMI, desmethyl- imipramine, reference compound], the Ki in experiment [5] was […]. Moreover, in experiment [4] (ip), the minimal effective dose stood at 0.4 mg/kg.
For the compound `CN(C)CC(c1cccc(Cl)c1)C1(O)CCCCC1` (centres unmarked) [Compound E, 1-[1-(3-chlorophenyl)-2-(dimethylamino)ethyl]-cyclohexanol], the Ki in experiment [2] (read-out: inhibition constants (vs. ^3H-imipramine)) is 130 nM. Moreover, in experiment [4] (setting [8]), the minimal effective dose is 1 mg/kg.
As to `CN(C)CC(c1ccc(Br)cc1)C1(O)CCCCC1` (centres unmarked) [Compound D, 1-[1-(4-bromophenyl)-2-(dimethylamino)ethyl]-cyclohexanol], the Ki in experiment [2] (setting [9]) was found to be 62 nM. Further, the minimal effective dose in experiment [4] (setting [8]) is 3 mg/kg. For the same compound, the “potency relative to Compound A in reversal of reserpine-induced hypothermia” value in experiment [4] (mice) is on record as “approximately three times as potent”.
For `CN(C)CCCN1c2ccccc2CCc2ccccc21` [Imipramine, reference compound], in experiment [5], the Ki was 37 nM. Besides, the Kb in experiment [6] (Cavia porcellus, read-out: KB against carbachol-stimulated contraction of the guinea-pig ileum) is roughly 100 nM.
For `COc1ccc(C(CN(C)C)C2(O)CCCCC2)cc1` (racemic) [Compound A, 1-[(2-dimethylamino)-1-(4-methoxyphenyl)ethyl]-cyclohexanol], in experiment [6] (at 1 µM), the “activity against carbachol-stimulated contraction of the guinea-pig ileum” value was “inactive”. Further, the minimal effective dose in experiment [4] (ip) and in experiment [4] (po) was 10 mg/kg in each case.
Consider `CN(C)CC(c1ccc(Cl)cc1)C1(O)CCCCC1` (centres unmarked) [Compound C, 1-[1-(4-chlorophenyl)-2-(dimethylamino)ethyl]-cyclohexanol], for which the half-inhibitory concentration (IC50) in experiment [1] was 250 nM; in experiment [3] it was 330 nM. Further, the Ki in experiment [2] (setting [7]) is 100 nM. Moreover, the minimal effective dose in experiment [4] (setting [8]) worked out at 10 mg/kg. The “potency relative to Compound A in reversal of reserpine-induced hypothermia” value in experiment [4] (mice) is listed as “approximately equipotent”.
As to `CN(C)CC(c1ccc(Cl)c(Cl)c1)C1(O)CCCCC1` (centres unmarked) [Compound G, 1-[1-(3,4-dichlorophenyl)-2-(dimethylamino)ethyl]-cyclohexanol], the Ki in experiment [2] (setting [9]) stood at 37 nM. The IC50 in experiment [3] was determined as 70 nM. Further, in experiment [4] (setting [8]), the minimal effective dose stood at 3 mg/kg. The “potency relative to Compound A in reversal of reserpine-induced hypothermia” value in experiment [4] (mice) is reported as “approximately three times as potent”.
